| SMILES | melting point |
| --- | --- |
| CNC(=O)c1ccc([C@@H]2C[C@H]3C=C(c4c[nH]c(-c5ccc(F)cc5)c4-c4ccncc4)CCN3C2)cc1 [Example 53, 2-(4-Fluorophenyl)-4-[(2S,8aS)-2-[4-(N-methylcarbamoyl)phenyl]-1,2,3,5,6,8a-hexahydroindolizin-7-yl]-3-(pyridin-4-yl)-1H-pyrrole] | 171 to 173 °C |
| CC(C)NC(=O)c1ccc([C@@H]2C[C@H]3C=C(c4c[nH]c(-c5ccc(F)cc5)c4-c4ccncc4)CCN3C2)cc1 [Example 59, 2-(4-Fluorophenyl)-4-[(2S,8aS)-2-[4-(N-isopropylcarbamoyl)phenyl]-1,2,3,5,6,8a-hexahydroindolizin-7-yl]-3-(pyridin-4-yl)-1H-pyrrole] | 202 to 204 °C |
| O=C(NC1CC1)c1ccc([C@@H]2C[C@H]3C=C(c4c[nH]c(-c5ccc(F)cc5)c4-c4ccncc4)CCN3C2)cc1 [Example 56, 4-[(2S,8aS)-2-[4-(N-Cyclopropylcarbamoyl)phenyl]-1,2,3,5,6,8a-hexahydroindolizin-7-yl]-2-(4-fluorophenyl)-3-(pyridin-4-yl)-1H-pyrrole] | 200 to 202 °C |
| COCCNC(=O)c1ccc([C@@H]2C[C@H]3C=C(c4c[nH]c(-c5ccc(F)cc5)c4-c4ccncc4)CCN3C2)cc1 [Example 61, 2-(4-Fluorophenyl)-4-[(2S,8aS)-2-[4-(N-(2-methoxyethyl)carbamoyl)phenyl]-1,2,3,5,6,8a-hexahydroindolizin-7-yl]-3-(pyridin-4-yl)-1H-pyrrole] | 166 to 168 °C |
| CCCNC(=O)c1ccc([C@@H]2C[C@H]3C=C(c4c[nH]c(-c5ccc(F)cc5)c4-c4ccncc4)CCN3C2)cc1 [Example 58, 2-(4-Fluorophenyl)-4-[(2S,8aS)-2-[4-(N-propylcarbamoyl)phenyl]-1,2,3,5,6,8a-hexahydroindolizin-7-yl]-3-(pyridin-4-yl)-1H-pyrrole] | 190 to 192 °C |

The next lines start with the values.

| melting point | SMILES |
| --- | --- |
| 173 to 175 °C | O=C(NCc1ccccc1)c1ccc([C@@H]2C[C@H]3C=C(c4c[nH]c(-c5ccc(F)cc5)c4-c4ccncc4)CCN3C2)cc1 [Example 55, 4-[(2S,8aS)-2-[4-(N-Benzylcarbamoyl)phenyl]-1,2,3,5,6,8a-hexahydroindolizin-7-yl]-2-(4-fluorophenyl)-3-(pyridin-4-yl)-1H-pyrrole] |
| 178 to 180 °C | CCNC(=O)c1ccc([C@@H]2C[C@H]3C=C(c4c[nH]c(-c5ccc(F)cc5)c4-c4ccncc4)CCN3C2)cc1 [Example 54, 4-[(2S,8aS)-2-[4-(N-Ethylcarbamoyl)phenyl]-1,2,3,5,6,8a-hexahydroindolizin-7-yl]-2-(4-fluorophenyl)-3-(pyridin-4-yl)-1H-pyrrole] |
| 183 to 185 °C | O=C(NCCF)c1ccc([C@@H]2C[C@H]3C=C(c4c[nH]c(-c5ccc(F)cc5)c4-c4ccncc4)CCN3C2)cc1 [Example 57, 4-[(2S,8aS)-2-[4-[N-(2-Fluoroethyl)carbamoyl]phenyl]-1,2,3,5,6,8a-hexahydroindolizin-7-yl]-2-(4-fluorophenyl)-3-(pyridin-4-yl)-1H-pyrrole] |

Source: US20070049620A1, “Cyclic tertiary amine compound” (SANKYO COMPANY, LIMITED, priority 2003, published 2007)
